Assay results taken from US4407804A, “Analgesic mixture of nalbuphine and indomethacin” (E. I. Du Pont de Nemours and Company, priority 1982, dated 1983).

Test system: phenyl-p-benzoquinone induced writhing in mice
Test: Mouse antiphenylquinone (phenyl-p-benzoquinone induced) writhing test, oral
Settings: for % mice blocked: 40 min
Experimental: Male CF1 mice obtained from Charles River Breeding Laboratories, fasted for 16-22 hours and weighing 18-22 g at the time of testing are used throughout. All mice are dosed sequentially by the oral route with solutions of indomethacin and/or of nalbuphine hydrochloride. A dosing volume of 10 ml/kg is used for each sequential solution. […] All doses are coded and the test is performed under a code not known to the observer.
A stock solution of indomethacin is prepared by dissolving dry indomethacin powder with an aqueous vehicle containing 2% by volume of Tween 80®, a pharmacological dispersant manufactured by Fisher Scientific Company and containing 100% polysorbate 80. All dosing solutions are prepared by dilution of the stock solution with the 2% Tween 80® vehicle; the vehicle control is 2% Tween 80®. All solutions are prepared fresh daily.
Stock solutions of nalbuphine HCl are prepared by dissolving dry nalbuphine hydrochloride powder with distilled water. All dosing solutions are prepared by dilution of the stock solution with distilled water; the vehicle control is distilled water.
As indicated above, the standard procedure based upon the prevention of phenyl-p-benzoquinone induced writhing in mice is utilized to detect and quantify the analgetic activity of compositions containing nalbuphine and indomethacin.
Mice, intubated with various doses of nalbuphine hydrochloride, indomethacin, combined doses of nalbuphine hydrochloride and indomethacin,or vehicle, are injected intraperitoneally with a standard challenge dose of phenyl-p-benzoquinone 5 minutes prior to the designated observation period. […] For scoring purposes a "writhe" is indicated by whole body stretching or contraction of the abdomen; mice are observed 10 minutes for the presence or absence of writhing beginning 5 minutes after receiving the phenyl-p-benzoquinone dose. Each mouse is used only once, then discarded. […] This dosage as described herein is referred to as the ED50.
In order to study the interaction between nalbuphine and indomethacin, 5 precise dosage ratios of nalbuphine hydrochloride and indomethacin were selected. Four or five coded doses of each selected combination were studied for analgesic effectiveness at 40 minutes using an experimental design which permits coding and complete randomization of the separate dosage forms tested. Altogether 35 separate dosage forms are used and each form is represented in each experimental session. The experiments are continued by running experimental sessions with an equal number of mice per group being tested until the total number, N, of mice tested per group is 60.

| Structure (SMILES) | % mice blocked (indomethacin 0.398 mg/kg, nalbuphine HCl 0) [%] | % mice blocked (indomethacin 0.795 mg/kg, nalbuphine HCl 0) [%] | % mice blocked (indomethacin 1.59 mg/kg, nalbuphine HCl 0) [%] | % mice blocked (indomethacin 3.18 mg/kg, nalbuphine HCl 0) [%] | ED50 at 40 min, Indomethacin (amount of indomethacin in the ED50 dose) (mouse, N=60 mice/dose, indomethacin alone or as component of the fixed-ratio combination) [mg/kg] | % mice blocked (nalbuphine HCl 5.45 mg/kg, indomethacin 0) [%] | % mice blocked (nalbuphine HCl 10.9 mg/kg, indomethacin 0) [%] | % mice blocked (nalbuphine HCl 21.8 mg/kg, indomethacin 0) [%] | % mice blocked (nalbuphine HCl 43.6 mg/kg, indomethacin 0) [%] | % mice blocked (nalbuphine HCl 87.2 mg/kg, indomethacin 0) [%] | ED50 at 40 min, Nalbuphine HCl (amount of nalbuphine HCl in the ED50 dose) (mouse, N=60 mice/dose, nalbuphine HCl alone or as component of the fixed-ratio combination) [mg/kg] |
| --- | --- | --- | --- | --- | --- | --- | --- | --- | --- | --- | --- |
| COc1ccc2c(c1)c(CC(=O)O)c(C)n2C(=O)c1ccc(Cl)cc1 [Indomethacin, 1-(p-chlorobenzoyl)-5-methoxy-2-methylindole-3-acetic acid] | 18.3 | 30.0 | 78.3 | 85.0 | 1.08 |  |  |  |  |  |  |
| Oc1ccc2c3c1O[C@H]1[C@@H](O)CC[C@@]4(O)[C@@H](C2)N(CC2CCC2)CC[C@]314 [Nalbuphine, (-)-17-(cyclobutylmethyl)-4,5α-epoxymorphinan-3,6α,14-triol] |  |  |  |  |  | 10.0 | 13.3 | 46.7 | 66.7 | 66.7 | 35.5 |
